Laboratory results as given in ChEMBL document CHEMBL1201862, “PubChem BioAssay data set” (2004).
The source made the active and inactive calls. Cut-off read from the data, not from the text of the source: actives have a measured IC50 and inactives only a lower limit.

Target: Envelope glycoprotein gp160 (Human immunodeficiency virus 1, UniProt Q6QLK5)
Test: cell-free HIV fusion peptide-binding blockers – biochemical, uHTS, fluorescence dequenching, […] (AID 1986)

Chain of Envelope glycoprotein gp160 (Q6QLK5 whole entry, the tested form may be a part): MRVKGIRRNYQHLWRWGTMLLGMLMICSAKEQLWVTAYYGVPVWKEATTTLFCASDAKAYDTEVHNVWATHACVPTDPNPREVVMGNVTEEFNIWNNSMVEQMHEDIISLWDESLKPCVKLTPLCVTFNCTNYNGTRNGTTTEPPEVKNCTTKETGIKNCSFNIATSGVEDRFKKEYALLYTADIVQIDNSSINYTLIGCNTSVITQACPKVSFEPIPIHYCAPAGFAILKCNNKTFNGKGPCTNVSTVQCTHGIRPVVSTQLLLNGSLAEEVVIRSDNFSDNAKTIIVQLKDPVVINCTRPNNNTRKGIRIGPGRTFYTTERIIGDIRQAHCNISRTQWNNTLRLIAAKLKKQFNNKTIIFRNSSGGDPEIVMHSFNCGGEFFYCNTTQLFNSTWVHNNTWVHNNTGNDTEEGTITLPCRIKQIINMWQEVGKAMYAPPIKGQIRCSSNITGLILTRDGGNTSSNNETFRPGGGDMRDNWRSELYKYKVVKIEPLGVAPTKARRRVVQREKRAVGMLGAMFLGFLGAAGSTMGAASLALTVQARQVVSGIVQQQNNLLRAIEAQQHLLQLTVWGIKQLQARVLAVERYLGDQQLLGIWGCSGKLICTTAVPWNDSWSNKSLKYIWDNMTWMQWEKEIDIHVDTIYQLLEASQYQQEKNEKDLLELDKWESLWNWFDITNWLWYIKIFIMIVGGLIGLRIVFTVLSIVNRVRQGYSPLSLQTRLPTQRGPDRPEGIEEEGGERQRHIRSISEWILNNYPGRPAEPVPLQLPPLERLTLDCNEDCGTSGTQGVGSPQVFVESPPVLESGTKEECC

| Structure (SMILES) | IC50 |
| --- | --- |
| O=C(O)c1ccccc1-c1ccccc1C(=O)Nc1ccc(-c2nc3cc(Cl)ccc3o2)cc1 | 24.4 µM (active) |
| COc1cc(/C=C2\C(=N)N3N=C(S(C)(=O)=O)SC3=NC2=O)ccc1OC(=O)c1cccs1 | 12.1 µM (active) |
